Entries after “also recorded” stand apart in the source; their conditions may differ.
Experiments:
[1] = tested on: primary mouse hippocampal neurons; test: NMDA induced cell death (excitotoxicity) in cultured primary neurons; assay type: cell-based; details: polypeptide expressed via rAAV infection on DIV3; NMDA 20 μM for 10 min; cell death assessed 24 h later
Procedure: Primary mouse hippocampal and cortical neurons were prepared and maintained as known. Briefly, hippocampi or cerebral cortex from P0 C57Bl/6NCrl mice were dissociated and plated at a density of 1.2*105/cm^2 in Growth Medium (GM), consisting of Neurobasal A medium (Gibco™, 10888022), 2% serum free B27™ Supplement (Gibco™, 17504044), 1% rat serum (Biowest, S2150), 0.5 mM L-Glutamine (Sigma, G7513) and 0.5% P-S. Cytosine β-D-arabinofuranoside (AraC; Sigma, C1768; 2.8 μM) was added on DIV3 to prevent the proliferation of glial cells. From DIV8, half of the medium was replaced by GM without Rat serum every 48 h until being used for experiments. 24 h before experiments, GM was replaced with transfection medium (10 mM HEPES, pH 7.4, 114 mM NaCl, 26.1 mM NaHCO3, 5.3 mM KCl, 1 mM MgCl2, 2 mM CaCl2, 30 mM glucose, 1 mM glycine, 0.5 mM C3H3NaO3, and 0.001% phenol red and 10% of phosphate-free Eagle's minimum essential medium, supplemented with 7.5 µg/ml insulin, 7.5 µg/ml transferrin and 7.5 ng/ml sodium selenite (ITS Liquid Media Supplement, Sigma-Aldrich Cat #I3146)). Primary hippocampal neurons were used in live cell imaging, cell death experiments, while cortical neurons were used for mRNA and protein extraction analysis.
All viral particles were produced and purified as known in the art. All TRPM4 derived peptides (comprising SEQ ID NO:5, or any of SEQ ID NO:46 to SEQ ID NO:56) were cloned into rAAV backbone by PCR. shRNA against mouse TRPM4 were designed by BLOCK-iT™ RNAi Designer from Thermofisher to target: […] (SEQ ID NO:44, shTRPM4-1) and […] (SEQ ID NO:45, shTRPM4-2). Scramble shRNA (shSCR) has been tested and proven to have no known targets in mice. GPI anchor ([…], e.g. used in SEQ ID NO:53) sequences were synthesized by Eurofins Genomics (Ebersberg, Germany). All primers were synthesized and all plasmids were confirmed by sequencing by Eurofins Genomics.
In order to investigate the role of TRPM4 in NMDA receptor mediated excitotoxicity, the inventors used RNA interference strategies to knock down TRPM4. Cultured primary mouse hippocampus neurons were infected on day 3 in vitro (DIV3) with recombinant adeno-associated viruses (rAAVs) providing for expression of a scramble control (shSCR), shTRPM4-1 (SEQ ID NO:44) or shTRPM4-2 (SEQ ID NO:45). On DIV15-16, neurons were challenged with N-methyl-D-aspartate (NMDA, 20 μM) for 10 min. After NMDA wash out, neurons were kept in the culture medium for another 24 h before analysis. […] Evidently, TRPM4 is thus involved in the process of NMDA receptor mediated excitotoxicity.
In a next step, the inventors tried to identify regions in the mouse TRPM4 protein potentially involved in NMDA receptor mediated excitotoxicity. For this purpose, polypeptide fragments of mouse TRPM4 protein were generated and their impact on NMDA induced excitotoxicity analysed. To do so, primary neuron cultures were infected with respective rAAVs on DIV3, challenged with NMDA (20 μM) for 10 min on DIV17 and cell death assessed 24 hours later.
The sequence of SEQ ID NO:5 in TRPM4 is located in vivo just beneath the plasma membrane. […] To test this hypothesis, the inventors created a fusion protein comprising SEQ ID NO:5 and a GPI anchor, SEQ ID NO:57. The sequence of the fusion is given in SEQ ID NO:53. Neurons infected with rAAV and expressing SEQ ID NO:47 (control) or SEQ ID NO:53 were exposed to NMDA (20 μM) for 10 min on DIV15-16, with cell death assessed after 24 h.
In a next step, the inventors created a mutant of SEQ ID NO:5, in which two adjacent phenylalanine residues where substituted by tyrosine residues (SEQ ID NO: 54). […] TRPM5 is a protein related to but nonetheless distinct to TRPM4. The region in TRPM5 corresponding to SEQ ID NO:5, SEQ ID NO:55, shares only about 60% sequence identity with SEQ ID NO:5. Neurons were infected on DIV3 with rAAVs expressing SEQ ID NO: 5, SEQ ID NO: 54 or SEQ ID NO:55 and exposed to NMDA (20 μM) for 10 min on DIV17, with cell death assessed 24 h later. […]

[2] = tested on: primary mouse hippocampal neurons; test: NMDA receptor induced mitochondrial membrane potential breakdown (Rh123 imaging); assay type: cell-based
Procedure: Coverslips with primary cultured neurons (DIV15-DIV17) were used to examine mitochondrial membrane potential (Ψm) and mitochondrial calcium signalling, which was performed at room temperature in CO2-independent culture medium (CICM) containing: 10 mM HEPES, 140 mM NaCl, 2.5 mM KCl, 1.0 mM MgCl2, 2.0 mM CaCl2, 1.0 mM Glycine, 35.6 mM Glucose and 0.5 mM Na-pyruvate. All images were obtained by a cooled-CCD camera (iXon 887, Andor) on an upright microscope (BX51WI, Olympus). Fluorescence excitation was provided by a xenon arc lamp in combination with an excitation filter wheel (MT-20, Olympus). Data were collected using Cell^R software (Olympus), analysed using ImageJ and quantified using Igor Pro (WaveMetrics). Ψm was detected with the small molecule fluorescence indicator Rhodamine 123 (Rh123; Molecular Probe™, R302). Primary cultured neurons were loaded with 4.3 μM Rh123 in CICM at 37° C. for 30 min, then washed and left in CICM for another 30 min before recording. At the end of each experiment, the mitochondrial uncoupler FCCP (5 μM, Sigma-Aldrich, Cat #C2920) was applied to the cells to reach the maximal Rh123 fluorescence intensity. Rh123 was imaged with 470±20 nm excitation and 525±25 nm emission wavelengths using a 20× objective. Rh123 fluorescence intensity was measured in the nucleus to minimize contamination from cytosolic mitochondrial signal and Rh123 fluorescence intensity was normalized to the maximum FCCP signal for each region of interest.
Mitochondrial dysfunction is a hallmark of NMDA receptor excitotoxicity and an early event en-route to neuronal death. A parameter that is often used to assess mitochondrial integrity is the mitochondrial membrane potential. A breakdown of the mitochondrial membrane potential can be observed after exposure of hippocampal or cortical neurons to NMDA and indicates excitotoxicity-associated mitochondrial dysfunction. Therefore, the inventors investigated the effect of polypeptides comprising the sequence of SEQ ID NO:5 or SEQ ID NO: 54 as well as of the control TRMP5 sequence (SEQ ID NO: 55) on mitochondrial membrane potential break down in primary mouse hippocampal neurons. Excitotoxicity leading to mitochondrial membrane potential break down was induced with bath application of 20 μM NMDA. After 11 minutes, the mitochondrial uncoupler, carbonylcyanide-p-trifluoromethoxyphenylhydrazone (FCCP) was added. Addition of FCCP leads to break-down of the mitochondrial membrane potential and served as a control of the test system.

synaptic NMDA receptor = test: Gabazine induced calcium influx into mitochondria (synaptic NMDA receptor signalling); assay type: cell-based, mouse; details: primary cultured neurons, polypeptides expressed via rAAV
Procedure: Gabazine induced mitochondrial Ca^2+ response in primary cultured neurons is recorded and analysed as described in a previous study (Qiu et al, Nat Commun. 2013; 4:2034, incorporated herewith by reference) using a FRET calcium indicator 4mtD3cpv that specifically located to mitochondria. Briefly, mitochondrial Ca^2+ levels were detected with FRET-based and mitochondrial targeted Ca^2+ indicator 4mtD3cpv. 4mtD3cpv were excited at 430±12 nm (CFP) and 500±10 nm (YFP), and emission of CFP (470±12 nm) and YFP (535±15 nm) were separated and filtered using a DualView beam splitter (AHF Analysentechnik and MAG Biosystems), and all fluorescence images were recorded through a 20× water-immersion objective at 1 Hz.
In a further experiment the inventors assessed the impact of the polypeptide comprising the sequence of SEQ ID NO:5 and SEQ ID NO: 54, respectively, on Gabazine induced calcium influx (mitochondria), a measure of synaptic NMDA receptor signalling. The experiment was carried out in primary cultured neurons as described above.

HEK293 cells = test: Luminescent cytotoxicity assay, HEK293 cells transfected with GRIN1 and GRIN2A or GRIN2B; assay type: cell-based, human; details: compound added 6 h after transfection; cell death 48 h after transfection
Procedure: HEK293 cells were cultured in Dulbecco's Modified Eagle Medium (DMEM, Gibco™ 41965-039) supplement with 10% Fetal Bovine Serum (FBS, Gibco™, 10270), 1% Sodium Pyruvate (Gibco™, 11360070), 1% MEM NEAA (GibcoT^M, 11140035) and 0.5% Penicillin-Streptomycin (P-S; Sigma, P0781) and Passagel5-25 were used for experiments.
To test the cytotoxicity of compounds according to the present invention, HEK293 cells (70-80% confluent) were transfected 24 hours after plating with both GRIN1 and GRIN2 Å or GRIN2B, respectively (1:[…]) with Lipofectamine 2000 according to manufacturer's instructions. The relative number of dead cells in the population at the indicated time points after transfection was measured with the CytoTox-Glo™ Cytotoxicity assay (Promega, G9290) according to manufacturer's instruction with minor modification. Briefly, 10% of total medium were mixed with 10 μL AAF-amino luciferin to reach a final volume at 200 μL with water, the dead cell relative luminescence units (DRLU) was measured by GloMax (Promega) in a 96 well white bottom polystyrene microplate (Corning Costar®, 3912). After all the measurements, lysis reagents have been added to the cells and 10% of lysate was used for the total cell relative luminescence units (TRLU) measurement. Cell death was calculated by the following equations: […]
For drug testing, P4, P8, P9, P13 and P15 were added to the medium at indicated concentration 6 h after transfection. DRLU, TRLU and cell death were measured and calculated 48 h after transfection.

NMDA receptor = test: NMDA-induced calcium transients (Fura2 calcium imaging); assay type: cell-based, mouse; details: hippocampal neurons, 6 min NMDA (20 μM) application
Procedure: In a further experiment, the impact of P4 and P15 on NMDA-induced calcium transients was assessed. Briefly, for calcium imaging, primary hippocampal neurons on coverslips were loaded with the cell-permeable, high-affinity ratiometric calcium indicator Fura2-AM (Invitrogen™ F1221), at 1 μM in CO2-independent culture medium (CICM; CICM contains: 10 mM HEPES, 140 mM NaCl, 2.5 mM KCl, 1.0 mM MgCl2, 2.0 mM CaCl2, 1.0 mM Glycine, 35.6 mM Glucose and 0.5 mM Na-pyruvate) for 30 min at 37° C., then washed and left in CICM for another 30 min to allow for de-esterification. Fura2 was excited at 340/11 nm and 380/11 nm, and fluorescence emission was obtained from a 40× UV compatible objective (LUMPLFLN, Olympus) through a 510/20 nm emission filter. For quantification, ImageJ was used to calculate average background-subtracted fluorescence intensities for 340 and 380 nm excitation (F340 and F380) from each neuron. Intracellular calcium levels were plotted as F340/F380 ratios over time, from which the NMDA response amplitude and area under the curve (AUC) was calculated to quantify NMDA-induced calcium influx.

TRPM4 channel = molecular target: T1, TRPM4 channel (Homo sapiens, UniProt Q8TD43); test: TRPM4 channel function, whole-cell patch clamp in PC3 cells; assay type: cell-based; details: 10 μM compound, pre-incubated 30-60 min
T1 construct: PC3 cells are known to express TRPM4 channels; endogenous in cells; host or cells: PC3 prostate cancer cell line
Text: To assess any direct impact of compound P4 and compound P15 on TRPM4 channel function independent of NMDA receptors, the inventors used the prostate cancer cell line PC3 and patch clamp recordings. PC3 cells are known to express TRPM4 channels (C. Holzmann et al., Oncotarget. 6, 41783-93 (2015)). TRPM4 currents in turn are characterized by their calcium dependence and outward rectification (P. Launay et al., Cell. 109, 397-407 (2002)). Briefly, whole-cell patch clamp recordings were made from PC3 cells plated on 12 mm round coverslips secured with a platinum ring in a recording chamber (OAC-1, Science Products GmbH) mounted on a fixed-stage upright microscope (BX51WI, Olympus). […] Patch electrodes (3-4 MΩ) were made from 1.5 mm borosilicate glass and filled with cesium-based solutions (in mM: CsCl, 145; NaCl, 8; HEPES, 10; MgCl2, 1; plus either EGTA, 0.2 for a free Ca^2+ concentration of zero; or EGTA, 10 and CaCl2), 9.4 for a calculated free Ca^2+ concentration of 10 μM; Maxchelator, Stanford University). Recordings were made with a Multiclamp 700B amplifier, digitized through a Digidata 1550B and acquired and analyzed using pClamp 10 software (Molecular Devices). Access resistance (range: 10-20 MΩ) was monitored regularly during voltage clamp recordings and data was rejected if changes greater than 20% occurred.

T1 sequence (Q8TD43 whole entry): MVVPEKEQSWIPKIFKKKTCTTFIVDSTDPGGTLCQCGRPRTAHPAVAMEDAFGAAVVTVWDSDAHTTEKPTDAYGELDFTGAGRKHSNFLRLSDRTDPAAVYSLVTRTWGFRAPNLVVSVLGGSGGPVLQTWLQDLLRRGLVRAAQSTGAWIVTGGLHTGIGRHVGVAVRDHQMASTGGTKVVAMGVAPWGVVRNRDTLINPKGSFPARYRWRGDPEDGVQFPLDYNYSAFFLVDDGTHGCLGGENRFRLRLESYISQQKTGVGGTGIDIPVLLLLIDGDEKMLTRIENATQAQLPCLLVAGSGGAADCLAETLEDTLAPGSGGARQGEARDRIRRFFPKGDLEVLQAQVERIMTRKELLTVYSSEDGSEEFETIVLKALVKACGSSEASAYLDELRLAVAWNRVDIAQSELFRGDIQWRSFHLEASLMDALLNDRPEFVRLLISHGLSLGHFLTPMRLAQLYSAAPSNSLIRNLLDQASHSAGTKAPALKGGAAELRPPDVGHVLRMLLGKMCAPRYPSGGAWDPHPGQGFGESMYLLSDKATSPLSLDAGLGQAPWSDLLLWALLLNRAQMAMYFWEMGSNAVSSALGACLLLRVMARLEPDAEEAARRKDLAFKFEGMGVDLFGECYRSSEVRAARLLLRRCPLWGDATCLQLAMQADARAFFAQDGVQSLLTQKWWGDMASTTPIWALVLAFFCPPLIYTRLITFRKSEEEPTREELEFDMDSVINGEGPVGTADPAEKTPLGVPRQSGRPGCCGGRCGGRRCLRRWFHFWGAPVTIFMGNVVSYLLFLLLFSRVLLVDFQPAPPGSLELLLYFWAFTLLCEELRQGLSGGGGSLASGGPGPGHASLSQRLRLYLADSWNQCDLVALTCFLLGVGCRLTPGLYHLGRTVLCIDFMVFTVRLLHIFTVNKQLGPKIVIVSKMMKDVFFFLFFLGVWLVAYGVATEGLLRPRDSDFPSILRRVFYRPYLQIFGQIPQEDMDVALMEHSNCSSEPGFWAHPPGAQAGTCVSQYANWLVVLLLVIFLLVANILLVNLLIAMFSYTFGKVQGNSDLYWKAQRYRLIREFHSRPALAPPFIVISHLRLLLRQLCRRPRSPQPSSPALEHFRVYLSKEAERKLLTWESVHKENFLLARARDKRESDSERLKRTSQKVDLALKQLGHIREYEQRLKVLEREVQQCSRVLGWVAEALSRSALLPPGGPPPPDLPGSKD

Row | Compound | protection against NMDA induced cell death (neuroprotective effect) [1] | NMDA receptor induced mitochondrial membrane potential breakdown ([2]; polypeptides expressed via rAAV, bath application of 20 μM NMDA) | Gabazine induced calcium influx into mitochondria (synaptic NMDA receptor) | protection of mitochondrial membrane potential from NMDA excitotoxicity ([2]; compound applied 30 min prior to recording, bath application of NMDA) | NMDA receptor induced cell death (HEK293 cells) | NMDA-induced calcium transients (NMDA receptor) | TRPM4-like outwardly rectifying current activated by 10 μM Ca2+ (TRPM4 channel)
1 | SEQ ID NO:54: derivative of SEQ ID NO:5, having a conservative substitution of two Y for two F (NSEERAARLLLRRCPLWGEATCLQLAMQADARAYYAQDGVQSLLTQKWWGEMDSTTP; Mutant of SEQ ID NO:5 with F34Y and F35Y) | only slightly less effective in reducing NMDA receptor-mediated cell toxicity than SEQ ID NO:5 | capable of preventing NMDA receptor induced mitochondrial membrane potential breakdown | neither of these polypeptides affects synaptic NMDA receptor signalling; also recorded: not affected | – | – | – | –
2 | NCC1CCN(CC(=O)Nc2cc(Cl)c(Cl)cc2Cl)C1 (stereo not shown) [P15] | – | – | – | significantly protect mitochondrial membrane potential from NMDA excitotoxicity | reduced the level of NMDA receptor induced cell death | neither compound P4 nor compound P15 reduced; also recorded: neither compound P4 nor P15 reduced | not affected

— US20260242440A1, “NOVEL MEANS TO MODULATE NMDA RECEPTOR-MEDIATED TOXICITY” (FUNDAMENTAL PHARMA GMBH, priority 2018, published 2026)
